Results from the NIST ThermoML archive (doi:10.1021/je900027h).
Numbers after ± are expanded uncertainties.

Conditions: Crystal; DTA

## c1ccc2c(c1)ccc1ccccc12 [phenanthrene]
  Normal melting temperature: 104.92 ± 0.5 °C
